Measured values from publication PMC8828969, “Arylamine N-Acetyltransferase 1 Activity is Regulated by the Protein Acetylation Status” (Frontiers in Pharmacology, 2022).
Like-named read-outs stand apart in the source and are kept apart here.

What was measured:
Sirtuin = Sirtuin activity in inhibitor-treated cells (Sirtuin Activity kit, lysate fluorescence); type: cell-based, human
Experimental: (§1) The next day, cells were treated with increasing concentrations, (0–100 µM) of the inhibitor for 48 h. Following incubation, the enzymatic activity of Sirtuin and HDAC proteins was quantified using the Sirtuin Activity kit (MilliporeSigma, St. Louis, MO, United States), according to manufacturer’s instructions. […] Supernatant was recovered ant kept on ice. Samples were normalized to the lowest protein concentration sample using the Bradford protein assay (Bio-Rad, Hercules, CA, United States). Then, 20 µL of diluted cell lysate were transferred into a 96 well plate, the activity reaction mix was prepared as recommended, and the reaction was incubated for 15 min at 37°C.

NAT1b transcript [1] = test: NAT1b mRNA quantification by qRT-PCR in MDA-MB-231 cells; type: cell-based, human; details: 48 h
Experimental: (§2) NAT1 mRNA levels were measured as described previously ([Millner et al., 2012]). Primers were designed to recognize only NAT1b expression. Briefly, total RNA was isolated cells lines using the RNeasy Mini kit (Qiagen, Hilden, GER) followed by removal of contaminating DNA by treatment with Turbo DNA-free (Ambion, Austin, TX, United States). cDNA was synthetized using the High-Capacity Reverse transcriptase kit (Life Technologies, Carlsbad, CA, United States) using 1 µg of total RNA in a 20 µL reaction following manufacturer’s instructions.
(§3) MDA-MB-231 or ZR-75-1 cells were plated in 12-well plates, at a density of 2 × 10^5 cells/well and allowed to attach to the plate overnight. […] After 48 h of drug treatment, plates were recovered and the cells were harvested for NAT1 activity assays, NAT1 mRNA and protein expression quantification as described above. For the siRNA transfection experiments, after 72 h of transfection, cells were harvested and processed as described above for the cells treated with inhibitors.

NAT1 [2] = test: NAT1 catalytic activity (PABA N-acetylation, HPLC) in lysate of treated MDA-MB-231 cells; type: cell-based, human; details: for Ki: MDA-MB-231 cells treated 48 h, read-out: Ki, decrease of NAT1 catalytic activity (PABA N-acetylation); for lowest concentration that significantly decreased NAT1 catalytic activity / lowest concentration that significantly increased NAT1 N-acetylation of PABA: MDA-MB-231 cells, 48 h
Experimental: (§4) In vitro NAT1 enzymatic activity was quantified towards p-aminobenzoic acid (PABA). N-acetyl-PABA was quantified by High Performance Liquid Chromatography (HPLC) as previously described ([Hein et al., 2006]; [Stepp et al., 2018]). Briefly, cells were scaped from the plate and washed in ice-cold Phosphate Buffered Saline (PBS) and lysed in 20 mM sodium phosphate pH 7.4, 1 mM ethylenediaminetetraacetic acid (EDTA), 0.2% triton X-100, 1 mM dithiothreitol (DTT), 100 µM phenylmethanesulfonyl fluoride (PMSF), 1 μg/ml aprotinin, and 2 µM pepstatin A (MilliporeSigma, St. Louis, MO, United States). Cell lysate was centrifuged at 15,000 × g for 10 min, supernatant was recovered, and protein concentration was quantified as mentioned before. NAT1 enzymatic assay reactions containing 50 µL of suitable cell lysate, 300 µM PABA, and AcCoA (1 mM), were incubated at 37°C for 10 min. Reactions were terminated by the addition of 10 µL of 1 M acetic acid, then proteins were precipitated by centrifugation (15,000 × g for 20 min in the cold room) and supernatant was transferred to HPLC vials and injected onto a LiChrospher 100 RP-18 (125 mm × 4 mm; 5 µm) reverse phase column. Reactants and products were eluted with an Agilent 1260 Infinity II system (Agilent Technologies, Santa Clara, CA, United States). Separation of N-acetyl-PABA was achieved using a gradient of 96:4 of 20 mM sodium perchlorate pH 2.5: acetonitrile (ACN) to 88:12 20 mM sodium perchlorate:ACN over 3 min. Absorbance was recorded at 280 nm. Four independent measurements were performed in duplicate for each cell condition and cell line.
as §3

NAT1 [3] = test: NAT1 catalytic activity (PABA N-acetylation, HPLC) in lysate of treated ZR-75-1 cells; type: cell-based, human; details: for Ki: ZR-75-1 cells treated 48 h, read-out: Ki, decrease of NAT1 catalytic activity (PABA N-acetylation); for lowest concentration that significantly decreased NAT1 catalytic activity / lowest concentration that significantly upregulated NAT1 catalytic activity: ZR-75-1 cells, 48 h
Experimental: as §4, §3

NAT1 [4] = test: NAT1 acetylation status (acetyl-lysine immunoprecipitation, AcNAT1/NAT1) in MDA-MB-231 cells; type: cell-based, human; details: 48 h, vs vehicle
Experimental: (§5) In order to assess the acetylation status of NAT1 protein, MDA-MB-231(6 × 10^5) and ZR-75-1 (3 × 10^6) cells were seeded onto 100 mm cell culture dishes and allowed to attach overnight. […] After 48-h drug treatment or 72-h siRNA transfection, cells were collected and lysed following the protocol of Signal-Seeker Acetyl-Lysine Detection kit (Citoskeleton, Denver, CO, United States). Briefly, after the incubation period concluded, cells were washed twice with PBS and lysed in ice-cold lysis buffer, 20 mM Tris-HCl (pH 7.4), 5 mM EDTA, 150 mM NaCl, 0.5% Triton X-100, 10 mM sodium butyrate and protease/phosphatase inhibitors cocktail. Cell lysates were incubated on ice for 20 min and isolated by centrifugation at 16,000 × g for 20 min. Supernatants were recovered and protein concentration was measured as described before. 150 µg of lysate was used for the IP; 1/10 of the sample was kept as input control. Thereafter, Acetyl Lysine Affinity Beads were added to the samples and incubated at 4°C for 2 h. Beads were washed three times with the provided wash buffer and the immunoprecipitated proteins were eluted and denatured with 2 × Laemmli buffer and boiled for 5 min. Protein samples were then separated by SDS-PAGE for 1 h at 150 V. Proteins were then transferred to PVDF membranes (Bio-Rad, Hercules, CA, United States) for 2 h at 100 V and blocked for 30 min in 1×fish gelatin (Biotium Inc., Fremont, CA, United States. After blocking, membranes were incubated with rabbit monoclonal anti-NAT1 antibody (ab109114, Abcam, Cambridge, United Kingdom) and mouse monoclonal anti-β-actin, as endogenous control (A2228, Sigma-Aldrich, St. Louis, MO, United States) overnight at 4°C with gentle agitation. The next day, the membranes were washed with TBST and incubated with secondary antibodies IRDye® 800 CW goat anti-rabbit and 680RD goat anti-mouse (LI-COR Biosciences, Lincoln, NE, United States) at room temperature for 1 hour. Finally, plates were washed with TBST and scanned using an Odyssey imaging system (LI-COR Biosciences, Lincoln, NE, United States). After detection of NAT1, the membranes were re-probed for acetyl-lysine-HRP detection using the antibody provided in the kit. Chemiluminescent detection was captured using a Fotodyne imaging system (Fotodyne Inc., Hartland, WI, United States). Densitometric analysis on the immunoblots was performed using ImageJ ([Schneider et al., 2012]) software or IMAGE STUDIO Lite software (LI-COR Biosciences, Lincoln, NE, United States), which enables quantitative analysis of blotting signals. NAT1 and acetyl-lysine levels were normalized to β-actin.

NAT1 [5] = test: NAT1 acetylation status (acetyl-lysine immunoprecipitation, AcNAT1/NAT1) in ZR-75-1 cells; type: cell-based, human; details: 48 h; for acetylation of NAT1 lysine residues, effect in words: vs vehicle; for NAT1 acetylation status, fold increase: vs vehicle control
Experimental: as §5

KDAC proteins = test: KDAC (Sirtuin / HDAC) activity, both breast cancer cell lines (discussion summary); type: cell-based, human; details: MDA-MB-231 and ZR-75-1 cell lines
NAT1b transcript [6] = test: NAT1b mRNA quantification by qRT-PCR in ZR-75-1 cells; type: cell-based, human; details: 48 h
Experimental: as §2, §3

HDAC [7] = details: MDA-MB-231 cells, vs vehicle control; for lowest concentration that significantly decreased HDAC deacetylase activity: 48 h
Experimental: as §1

HDAC [8] = details: ZR-75-1 cells, vs vehicle control
NAT1b transcript [9] = tested on: NAT1b transcript; design: method as in Paterson et al., 2011; details: after treatment with TSA; ref Paterson et al., 2011; cited from earlier work
NAT1 [10] = tested on: NAT1; design: method as in Paterson et al., 2011; details: after treatment with TSA; ref Paterson et al., 2011; cited from earlier work
NAT1 [11] = tested on: NAT1; design: method as in Butcher et al., 2020; details: ref Butcher et al., 2020; cited from earlier work
[12] = MDA-MB-231 cells, 48 h, vs vehicle control
[13] = MDA-MB-231 cells, 48 h treatment, vs vehicle control; read-out: IC50, Sirtuin deacetylase activity
[14] = ZR-75-1 cells, 48 h, vs vehicle control
[15] = ZR-75-1 cells, 48 h treatment, vs vehicle control; read-out: IC50, Sirtuin deacetylase activity
[16] = ZR-75-1 cells, 100 µM, vs vehicle
[17] = read-out: IC50, HDAC deacetylase activity, 48 h treatment

| IC50 (Sirtuin; [13]) [µM] | IC50 (Sirtuin; [15]) [µM] | Compound | lowest concentration that significantly decreased Sirtuin activity (Sirtuin; [12]) [µM] | lowest concentration that significantly inhibited Sirtuin deacetylase activity (Sirtuin; [14]) [µM] | NAT1b transcript expression, effect in words (NAT1b transcript [1]; 100 µM, vs vehicle) | Ki (NAT1 [2]) [µM] | lowest concentration that significantly decreased NAT1 catalytic activity (NAT1 [2]) [µM] | Ki (NAT1 [3]) [µM] | lowest concentration that significantly decreased NAT1 catalytic activity (NAT1 [3]) [µM] | acetylated lysine residues of NAT1, effect in words (NAT1 [4]; 100 µM) | acetylation of NAT1 lysine residues, effect in words (NAT1 [5]; 100 µM) | dose producing inhibition of KDAC enzymatic activity (KDAC proteins) [µM] | NAT1b transcript expression, effect in words (NAT1b transcript [6]; [16]) | lowest concentration that significantly decreased HDAC deacetylase activity (HDAC [7]) [µM] | lowest concentration that significantly increased NAT1 N-acetylation of PABA (NAT1 [2]) [µM] | lowest concentration that significantly upregulated NAT1 catalytic activity (NAT1 [3]) [µM] | other results |
| --- | --- | --- | --- | --- | --- | --- | --- | --- | --- | --- | --- | --- | --- | --- | --- | --- | --- |
| 50.1 | 27.6 | N#CC(=Cc1ccc(-c2cc(Cl)ccc2Cl)o1)C(=O)Nc1cccc2ncccc12 [AGK2, 2-cyano-3-[5-(2,5-dichlorophenyl)-2-furanyl]-N-5-quinolinyl-2-propenamide] | 10 | 10 | significantly decreased | 10.8 | 1 | 0.55 | 1 | increased | increased | 10 | – | – | – | – | – |
| – | – | NC(=O)C1CCCc2c1[nH]c1ccc(Cl)cc21 (stereo not drawn) [EX527, 6-chloro-2,3,4,9-tetrahydro-1H-carbazole-1-carboxamide] | 1 | 1 | significantly decreased | 7.03 | 0.1 | 0.39 | 0.01 | increased | – | 1 | significant decrease | – | – | – | IC50 (Sirtuin; read-out: IC50, Sirtuin deacetylase activity; MDA-MB-231 cells, 48 h treatment, vs vehicle control): 40.6 µM; IC50 (Sirtuin; read-out: IC50, Sirtuin deacetylase activity; ZR-75-1 cells, 48 h treatment, vs vehicle control): 11.8 µM |
| – | – | O=C(CCCCCCC(=O)Nc1ccccc1)NO [SAHA, Vorinostat] | – | – | – | – | – | – | – | – | – | – | – | 10 | 10 | 10 | NAT1b transcript expression, effect in words (NAT1b transcript [1]; 10 and 100 µM, vs vehicle): more NAT1b transcript expression |
| 61.7 | 35.8 | CC(NC(=O)c1ccccc1N=Cc1c(O)ccc2ccccc12)c1ccccc1 (stereo not drawn) [Sirtinol, 2-[[(2-hydroxy-1-naphthalenyl)methylene]amino]-N-(1-phenylethyl)-benzamide] | 100 | 10 | significantly decreased | 21.9 | 1 | 0.02 | 0.1 | increased | increased | 10 | significant decrease | – | – | – | acetylation of NAT1 lysine residues, effect in words (NAT1 [5]; 10 µM): increased |
| – | – | CC(/C=C/C(=O)NO)=C\[C@@H](C)C(=O)c1ccc(N(C)C)cc1 [TSA, Trichostatin A] | – | – | – | – | – | – | – | – | – | 0.1 | – | 1 | 1 | 1 | IC50 (HDAC [7]; [17]): 13.5 µM; NAT1b transcription, fold increase (NAT1b transcript [1]; 0.01 µM): 3 fold; NAT1b transcript expression, fold increase (NAT1b transcript [1]; 10 µM, vs vehicle): over 10 fold; lowest dose with significant increase of NAT1b transcription (NAT1b transcript [1]): 0.01 µM; NAT1b message expression, fold increase (NAT1b transcript [6]; ZR-75-1 cells, 1 µM): 6 fold; NAT1b transcript expression, fold increase (NAT1b transcript [6]; [16]): 9 fold; NAT1b transcript expression, effect in words (NAT1b transcript [6]; ZR-75-1 cells, 1, 10 and 100 µM, vs vehicle): more robust induction; lowest dose with significant upregulation of NAT1b message expression (NAT1b transcript [6]; ZR-75-1 cells): 1 µM; NAT1 acetylation, fold increase (NAT1 [4]; 10 µM): 1.6 fold; NAT1 acetylation, fold increase (NAT1 [4]; 100 µM): 2.1 fold; NAT1 acetylation status, fold increase (NAT1 [5]; 10 µM): 1.8 fold; NAT1 acetylation status, fold increase (NAT1 [5]; 100 µM): 2.4 fold; lowest concentration that significantly inhibited HDAC enzymatic activity (HDAC [8]; 48 h): 0.1 µM; IC50 (HDAC [8]; [17]): 6.4 µM; NAT1b transcription (NAT1b transcript [9]): upregulation; NAT1 catalytic activity (NAT1 [10]): increase |
| – | – | NC(=O)c1cccnc1 [nicotinamide] | – | – | – | – | – | – | – | – | – | – | – | – | – | – | acetylation of NAT1 (NAT1 [11]): enhanced |
